Patent publication US10011597B2 (APOGLYX AB, priority 2014, dated 2018)

Target: T1, human aquaporin 9 (Homo sapiens, UniProt O43315)
T1 construct: expressed in transfected cells; host or cells: Human AQP9 cell line with tetracycline added to the medium
T1 sequence (O43315 1-295): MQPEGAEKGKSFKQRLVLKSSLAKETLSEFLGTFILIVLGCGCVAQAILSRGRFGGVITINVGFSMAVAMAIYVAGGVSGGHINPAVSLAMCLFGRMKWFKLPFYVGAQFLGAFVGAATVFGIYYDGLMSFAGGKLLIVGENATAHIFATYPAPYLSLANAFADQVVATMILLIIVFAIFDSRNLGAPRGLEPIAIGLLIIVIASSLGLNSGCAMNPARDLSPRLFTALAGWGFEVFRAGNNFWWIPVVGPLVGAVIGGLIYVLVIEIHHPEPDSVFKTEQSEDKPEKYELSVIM
Assay: Calcein quenching fluostar assay
Format: cell-based
Details: inhibition of human aquaporin 9; Human AQP9 cell line, tetracyclin-induced; 25° C.
Description: Calcein Quenching Fluostar Assay
A calcein quenching fluostar assay was performed in order to investigate the biological activity of the newly synthesized examples 1 to 57. This type of assay is disclosed in J. Biol. Chem., 2011, 286, 44319-44325 and Am. J. Physiol. Renal Physiol. (2010), 298, F224-230.
1) Two days prior to commencement of the assay, seed 10,000 cells/well of 96 well black clear bottom plate (Greiner Poly-lysin plate). A 1:1 mix of Dulbecco's Modified Eagle's Medium:Nutrient Mixture F-12 (DMEM: F12) was obtained from Gibco. Tetracycline stock of 5 mg/ml in 96% ethanol is used. Medium:DMEM/F12/10% Donor Bovine Serum, Human AQP9 cell line+1:270,000 tetracyclin, mouse AQP9 cell line+1:2,700,000 tetracycline.
2) Day of assay: Flick/slam off the medium and add 50 μl/well of loading solution: 5 ml DMEM/F12/10% Donor Bovine Serum, 25 μl Calcein AM—from freshly dissolved aliquot in 50 μl DMSO (VWR #734-1434), and 100 μl Probenecid.
3) Incubate the well for 90 minutes at 37° C.
4) Perform one wash with 75 μl wash buffer.
5) Add 75 μl of an example compound prepared in wash buffer per well.
Example compounds are prepared in 500 μl U bottom PP plates (NUNC). […] Substance in DMSO are added to row A; 180 μl of wash buffer+1% DMSO are added to rows B-H. 90 μl from row A are transferred and mixed with all other wells (up to row G) to make a 3-fold dilution series.
6) Assay in FLUOstar Optima at 25° C. Settings buffer addition at 135 μl seconds, add 75 μl/well, record time course for 30 seconds, add sucrose buffer 3.6 seconds into recording.
7) Normalization to initial in Excel.
8) Fit to “exponential decay” function in GraphPad Prism 5.0, then arrange half live shrinking values according to wells and fit dose-response curves.

| IC50 [nM] | SMILES |
| --- | --- |
| 676 | CCn1c(SCC(=O)Nc2nnc(-c3ccc(SC)cc3)s2)nnc1-c1ccc(F)cc1 [Example 55, 2-{[4-ethyl-5-(4-fluorophenyl)-4H-1,2,4-triazol-3-yl]sulfanyl}-N-{5-[4-(methylsulfanyl)phenyl]-1,3,4-thiadiazol-2-yl}acetamid] |
| 151 | CCn1c(SCC(=O)Nc2nnc(-c3ccc(S(C)(=O)=O)cc3)s2)nnc1-c1ccncc1 [Example 56, 2-{[4-ethyl-5-(pyridin-4-yl)-4H-1,2,4-triazol-3-yl]sulfanyl}-N-[5-(4-methanesulfonylphenyl)-1,3,4-thiadiazol-2-yl]acetamid] |
| 133 | CCn1c(SCC(=O)Nc2nnc(-c3ccc(S(C)(=O)=O)cc3)s2)nnc1-c1cccnc1 [Example 57, 2-{[4-ethyl-5-(pyridin-3-yl)-4H-1,2,4-triazol-3-yl]sulfanyl}-N-[5-(4-methanesulfonylphenyl)-1,3,4-thiadiazol-2-yl]acetamide] |
